One compound from the NIST ThermoML archive (doi:10.1016/j.fluid.2014.10.031) can be followed below.

The conditions of series [1]: Crystal; DTA.
A short description of series [2]: Molar enthalpy of transition or fusion. Conditions: Crystal; DSC.

Structures are written as SMILES. ± gives the expanded uncertainty stated by the source.

With `COc1cc(O)c2c(c1)oc(=O)c1c3cc(O)c(O)cc3oc21` [wedelolactone], in series [1], the Normal melting temperature is 316.37 ± 24 °C. The “Molar enthalpy of transition or fusion” value in series [2] stood at 10.9 ± 0.478 kcal/mol.
